Data on 13 compounds can be found in patent US8822440B2, “Inhibiting cyclin D polypeptides” (Mayo Foundation for Medical Education and Research, priority 2006, dated 2014).

“Also recorded” adds a separate entry of the source.

One series relates to CCND2 promoter. Nature of the series: CCND2 promoter-luciferase transactivation assay in NIH3T3 cells with or without c-maf. Type of series: cell-based, mouse. As to conditions: for identified as putative inhibitor of CCND2 transactivation (screen hit): ~5 μM, hit = 50% or more reduction in luciferase relative to cell viability; for identified as putative inhibitor of CCND2 transactivation (screen hit) / effect on CCND2-luc expression, agent alone: 16 hours; for effect on CCND2-luc expression, agent alone: 5 μM. As to the method:
Using this assay, Lopac (n=1280), Prestwick (n=1120), and Spectrum (n=2000) libraries of drugs and natural compounds were screened. In a parallel MTS assay, the effect of each compound on 3T3 viability was determined, allowing exclusion of compounds that caused secondary suppression of CCND2 due to non-specific cytotoxicity. […] These included monensin, patulin, β-lapachone, camptothecin, dihydrogambogic acid, gentian violet, thapsigargin, brefeldin A, pristimerin, and kinetin riboside.
Full-length c-maf cDNA was subcloned into an IRES-GFP MIEV retroviral vector and introduced into NIH3T3 cells by infection. Stable clones expressing GFP and c-maf were selected by flow cytometry and immunoblotting, respectively. The promoter of human cyclin D2 (−894 to −4; Brooks et al., J. Biol. Chem., 271, 9090-9 (1996)), containing c-maf responsive element sequence (MARE), was cloned from DNA from HeLa cells and inserted into the pGLbasic firefly luciferase vector (Promega, Madison, Wis.) immediately upstream of the luciferase gene. This construct was co-transfected with pcDNA3 (containing a neomycin resistance gene) into both NIH3T3 wild type cells and NIH3T3 cells stably over-expressing c-maf-IRES-GFP. Cells stably expressing c-maf, GFP, and luciferase were selected.
(§1) NIH3T3 cells stably expressing c-maf and the CCND2 promoter driving luciferase (13,000 cells per well) were plated in 96-well plates by a Biomek FX liquid handler (Beckman, Fullerton, Calif.). After the cells had adhered, they were treated with aliquots of molecules from LOPAC (Sigma, St. Louis, Mo.), Prestwick (Prestwick Chemical Inc, Illkirch, France) or Spectrum (Microsource Discovery Systems, Gaylordsville, Conn.) libraries of off-patent drugs and chemicals at a final concentration of ˜5 μM and <0.1% DMSO. Cells were incubated with compounds at 37° C. for 16 hours.
Luciferase assay. Luciferase activity was assessed according to the manufacturer's instructions (Promega, Madison, Wis.). Briefly, the cell culture medium was removed using an EMBLA plate washer (Molecular Devices, X) and Glo Lysis buffer (Promega) was added by robot. After a 10-minute incubation, an equal volume of Bright-Glo Luciferase substrate (Promega) was added, and luminescence signal was detected with a 96-well Luminoskan luminescence plate reader (Thermo Labsystem, Waltham, Mass.) using a 5 second integration.
Studies of kinetin riboside using 3T3-D2-luc cells. To examine CCND2 suppression induced by kinetin riboside, the reporter cells were exposed to kinetin riboside in combination with other drugs (all purchased from Sigma, St. Loius, Mo.) that influence CCND2 transcription or inhibit nucleoside transport or phosphorylation. NIH3T3 cells expressing the CCND2 promoter driving luciferase were incubated with kinetin riboside or vehicle control +/− forskolin, 4-(3-butoxy-4-methoxybenzyl)imidazolidin-2-one (BMBI), cantharadin, S-(4-Nitrobenzyl)-6-thioinosine (NBTI), or A-134974, as specified at 5 μM concentration for 16 hours at 37° C. […] Forskolin is a cell-permeable diterpenoid that activates adenylate cyclase resulting in increased cAMP concentration. BMBI (Sigma B8279) is an inhibitor of cAMP phosphodiesterase that also causes accumulation of cAMP. Cantharadin (C7632) is an inhibitor of protein phosphatase 2A and, from the library screen, mediates induction of CCND2. NBTI (Sigma N2255) is a potent adenosine uptake inhibitor, and A-134974 (Sigma A2846) is a selective inhibitor of adenosine kinase.
(§2) In an optimized automated assay, NIH3T3 cells over-expressing c-maf and the human cyclin D2 promoter driving luc were plated in 96-well plates by robot and following adhesion were treated for 16 hours with compounds at a final concentration of ˜5 μM and <0.1% DMSO. As a control, cells were treated with buffer alone. […] Thus, each compound from the library was tested in at least two assays—luciferase for CCND2 activity and MTS for viability. The coefficient of variance (CV) of the assay was <10%.

The test system of series [1] is CD138− hematopoietic cells. Nature of the series: Unsorted myeloma patient bone marrow, flow cytometry: CD138- non-malignant cells. Format: cell-based. As to conditions: for toxicity for normal / non-malignant patient hematopoietic cells: patient bone marrow. As to the method:
(§3) Flow cytometry. HMCL were treated as indicated and then washed in cold phosphate-buffered saline (PBS) and resuspended in buffer containing AnnexinV-FITC and propidium iodide (BD Biosciences, San Jose, Calif.) for 15 minutes at room temperature. Cells (10^5) were subsequently diluted and analyzed immediately by flow cytometry (FACScan, BD Biosciences, San Jose, Calif.) using CellQuest software. Patient bone marrow specimens were prepared and analyzed in a similar fashion using AnnexinV-FITC and anti-CD138-PE (BD Biosciences, San Jose, Calif.).
(§4) As mouse embryos that lack any D-cyclins eventually die from hematopoietic failure (Kozar et al., Cell, 118, 477-91 (2004)), the bone marrow might be predicted to be one of the most sensitive non-malignant tissue to be affected by drugs targeting cyclin D expression. Unsorted bone marrow samples from myeloma patients were treated with kinetin riboside to assess the relative cytotoxicity of this drug on malignant versus non-malignant marrow cells. Bone marrow samples were first processed to remove non-nucleated red cells and were then treated for 48 hours with kinetin riboside (5 μM).
Background: In flow cytometry, cells or beads pass a laser one at a time.

The next series has as its system HMCL. Nature of the series: Cell cycle profiling of HMCL by flow cytometry. As to conditions: Example 1, HMCL. Format: cell-based, human. How it is done: Cell cycle profiling. HMCL were incubated with drug or vehicle as indicated, washed and resuspended in 1 mL PBS. Ice cold ethanol was added dropwise to 75% with regular mixing, and suspensions were incubated at −20° C. for 1 hour. Cells were washed again with PBS and resuspended in 0.1 mL RNAse A (100 μg/mL) at room temperature for 5-10 minutes. Propidium iodide (200 μL×100 μg/mL) was added immediately prior to analysis by flow cytometry. Cellular aggregates were excluded using CellQuest Doublet Discriminator Module, and cell cycle profile was determined using ModFit LT Mac 3.1 SP2 (Verity Software House, TopSham, Me.).

Series [2] deals with human myeloma cell lines (HMCL). As to the kind of experiment: HMCL viability / cytotoxicity (MTT, MTS). Type of series: cell-based. How it is done: Subsequent validation studies using selected compounds in human myeloma cell lines (HMCL) confirmed successful suppression of both cyclin D2 and D1 polypeptides. Each of these compounds was then shown to be cytotoxic to a genetically diverse and standardized panel of 14 HMCL in MTT assays: monensin (10-760 nM), camptothecin (5-700 nM), dihydrogambogic acid (250-800 nM), pristimerin (150-500 nM), and kinetin riboside (2.5-20 μM). Cell cycle analysis confirmed induction of G0/G1 phase arrest for most compounds, consistent with cyclin D inhibition.
(§5) Viability assay. The effects of screened compounds on cell viability was assessed by 3-(4,5-dimethyl[…])-5-(3-carboxymethoxyphenyl)-2-(4-sulfophenyl)-2-H-tetrazolium (MTS) assay according to the manufacture's instructions (Progmega, Madison, Wis.). MTS reagent (20 μL/well in 96 well plates) was added to cells, and these were then incubated at 37° C. for 4 hours. Absorbance at 490 nm was determined using a 96-well plate reader.

In the next series the test system is CD138+ myeloma cells. Nature of the series: Unsorted myeloma patient bone marrow, flow cytometry: CD138+ myeloma cells. Type of series: cell-based, human. As to conditions: unsorted myeloma patient bone marrow samples. How it is done:
as §3, §4

For the next series, the system named is NIH3T3 cells. Format: cell-based, mouse. As to conditions: MTS. As to the method: as §1, §5, §2

As for `C/C=C(/C)C(=O)O[C@H]1C(C)=C2[C@H]([C@@H]1OC(=O)CCCCCCC)[C@@](C)(OC(C)=O)C[C@H](OC(=O)CCC)[C@@]1(O)[C@H]2OC(=O)[C@@]1(C)O` [thapsigargin], in the series with CCND2 promoter, the “identified as putative inhibitor of CCND2 transactivation (screen hit)” value (“identified as putative inhibitor” below) is “putative CCND2 inhibitors”.

Turning to `N[C@@H](Cc1ccc(N(CCCl)CCCl)cc1)C(=O)O` [melphalan, reference compound], the “effect on non-malignant CD138− marrow cells” value in series [1] (48 hours, kinetin riboside 5 μM) was “killed proportionately more healthy CD138− marrow cells than malignant myeloma cells”.

For `C[C@@]12C(=O)OC(=O)[C@]1(C)[C@H]1CC[C@@H]2O1` [cantharadin], in the series on CCND2 promoter (NIH3T3 reporter cells), the “effect on CCND2-luc expression, agent alone” value is “marked transactivation”.

On to `CC[C@@]1(O)C(=O)OCc2c1cc1n(c2=O)Cc2cc3ccccc3nc2-1` [camptothecin, reference compound], for which the “identified as putative inhibitor” value in the series with CCND2 promoter was “putative CCND2 inhibitors; also recorded: putative suppressors of CCND2”. In addition, the “cell cycle arrest phase” value in the series with HMCL is “S-phase arrest”. Further, the “cytotoxic concentration across panel of 14 HMCL” value in series [2] (MTT assays, 14 HMCL) was 5 to 700 nM.

As for `CN(C)c1ccc(C(=C2C=CC(=[N+](C)C)C=C2)c2ccc(N(C)C)cc2)cc1` [gentian violet], the “identified as putative inhibitor” value in the series with CCND2 promoter was “putative CCND2 inhibitors; also recorded: putative suppressors of CCND2”.

`C[C@H]1CCC/C=C/[C@@H]2C[C@H](O)C[C@H]2[C@H](O)/C=C/C(=O)O1` [brefeldin A]: the “identified as putative inhibitor” value in the series with CCND2 promoter is on record as “putative CCND2 inhibitors”.

Turning to `CC[C@@]1([C@@H]2O[C@@H]([C@H]3O[C@@](O)(CO)[C@H](C)C[C@@H]3C)C[C@@H]2C)CC[C@H]([C@]2(C)CC[C@]3(C[C@H](O)[C@@H](C)[C@@H]([C@@H](C)[C@@H](OC)[C@H](C)C(=O)O)O3)O2)O1` [monensin, reference compound], the “toxicity for normal / non-malignant patient hematopoietic cells” value is on record as “almost equal toxicity for normal cells” in series [1] and “excessive non-specific toxicity” in series [1] (listed as Monensin). Besides, in the series with CCND2 promoter, the “identified as putative inhibitor” value is given as “putative CCND2 inhibitors; also recorded: putative suppressors of CCND2”. For the same compound, the “cytotoxic concentration across panel of 14 HMCL” value in series [2] (human) lay within 10 to 760 nM.

As for `CC(C)=CCCC1(C)C=Cc2c(O)c3c(c(CC=C(C)C)c2O1)OC12C(=CC4CC1C(C)(C)OC2(C/C=C(/C)C(=O)O)C4O)C3=O` (centres unmarked) [dihydrogambogic acid], in the series on CD138+ myeloma cells, the “activity against CD138+ myeloma cells compared with non malignant hematopoietic cells” value is given as “selective activity”. For the same compound, in the series on CCND2 promoter (NIH3T3 CCND2-luc with or without c-maf), the “suppression of CCND2 promoter in absence or presence of c-maf” value is “c-maf independent specific suppression of the CCND2 promoter”. The “identified as putative inhibitor” value in the series on CCND2 promoter is reported as “putative CCND2 inhibitors; also recorded: putative suppressors of CCND2”. Moreover, the “cytotoxic concentration across panel of 14 HMCL” value in series [2] (human) was in the range of 250 to 800 nM.

For the compound `CC[C@@]1(O)C[C@H](O[C@H]2C[C@H](N(C)C)[C@H](O)[C@H](C)O2)c2c(cc3c(c2O)C(=O)c2c(O)cccc2C3=O)[C@H]1C(=O)OC` [aklavine], the “effect on NIH3T3 viability” value in the series on NIH3T3 cells is listed as “excess NIH3T3 cytoxicity”. In addition, the “identified as putative inhibitor” value in the series with CCND2 promoter was “putative suppressors of CCND2”.

`N=C1C=CC(=C(c2ccc(N)cc2)c2ccc(N)cc2)C=C1` [pararosaniline pamoate]: the “identified as putative inhibitor” value with CCND2 promoter is “putative suppressors of CCND2”.

As to `CCCCOc1cc(CC2CNC(=O)N2)ccc1OC` (centres unmarked) [BMBI, 4-(3-butoxy-4-methoxybenzyl)imidazolidin-2-one], the “effect on CCND2-luc expression, agent alone” value with CCND2 promoter (NIH3T3 reporter cells) is “CCND2 transactivation”.

On to `O=[N+]([O-])c1ccc(CSc2ncnc3c2ncn3[C@@H]2O[C@H](CO)[C@@H](O)[C@H]2O)cc1` [NBTI, S-(4-Nitrobenzyl)-6-thioinosine], for which, in the series on CCND2 promoter (NIH3T3 reporter cells, with kinetin riboside), the “effect on kinetin riboside-induced suppression of CCND2” value was “does not block kinetin riboside function”.

For the compound `CC1(C)CCC2=C(O1)c1ccccc1C(=O)C2=O` [β-lapachone, reference compound], the “identified as putative inhibitor” value in the series on CCND2 promoter was “putative CCND2 inhibitors”. Moreover, the “cell cycle arrest phase” value with HMCL was “S-phase arrest”.
